The source made the active and inactive calls. No cut-off for these calls is given here.
Tested on: HT-29
Experiment: Antiproliferative activity against human HT-29 cells at 100 uM up to 15 hrs by non-radioactive cell proliferation assay
Format: functional, cell-based

Structure (SMILES)	Activity
CC[C@H](C)[C@@H]1OC(=O)C(C)(C)[C@@H](O)[C@@H](Cc2ccccc2)OC(=O)[C@H](C)OC(=O)[C@@H](NC(=O)c2cccc(NC=O)c2O)[C@H](C)OC1=O	inactive
CC[C@H](C)[C@@H]1OC(=O)C(C)(C)[C@@H](O)[C@@H](Cc2ccccc2)OC(=O)[C@H](C(C)C)OC(=O)[C@@H](NC(=O)c2cccc(N)c2O)[C@H](C)OC1=O	inactive
CC(C)[C@@H]1OC(=O)[C@@H](NC(=O)c2cccc(NC=O)c2O)[C@H](C)OC(=O)[C@H](C(C)C)OC(=O)C(C)(C)[C@@H](O)[C@@H](Cc2ccccc2)OC1=O	inactive
CC(C)[C@@H]1OC(=O)[C@@H](NC(=O)c2cccc(N)c2O)[C@H](C)OC(=O)[C@H](C(C)C)OC(=O)C(C)(C)[C@@H](O)[C@@H](Cc2ccccc2)OC1=O	inactive
CC[C@H](C)[C@@H]1OC(=O)C(C)(C)[C@@H](O)[C@@H](Cc2ccccc2)OC(=O)[C@H](C(C)C)OC(=O)[C@@H](NC(=O)c2cccc(NC=O)c2O)[C@H](C)OC1=O	inactive
CC[C@H](C)[C@@H]1OC(=O)C(C)(C)[C@@H](O)[C@@H](Cc2ccccc2)OC(=O)[C@H](C)OC(=O)[C@@H](NC(=O)c2cccc(N)c2O)[C@H](C)OC1=O	inactive
